Data reported in PubChem BioAssay (NCI).
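Following 48 hours of exposure in 96-well plates, responses at five concentrations were used to interpolate endpoints linearly. GI50 is the concentration that inhibits growth by half. At the TGI there is no net growth.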

Key:
Experiment in all cases: inhibition of tumour cell growth, NCI panel, 48 h
SK-OV-3 ovarian = tested on: SK-OV-3 ovarian
OVCAR-5 ovarian = tested on: OVCAR-5 ovarian
MALME-3M melanoma = tested on: MALME-3M melanoma
MDA-MB-435 = tested on: MDA-MB-435
SW-620 colon = tested on: SW-620 colon
HL-60(TB) leukemia = tested on: HL-60(TB) leukemia
PC-3 prostate = tested on: PC-3 prostate
HCT-116 colon = tested on: HCT-116 colon
HT29 colon = tested on: HT29 colon
CAKI-1 renal = tested on: CAKI-1 renal

| Compound | GI50 (SK-OV-3 ovarian) | TGI (SK-OV-3 ovarian) | GI50 (OVCAR-5 ovarian) | TGI (OVCAR-5 ovarian) | GI50 (MALME-3M melanoma) | TGI (MALME-3M melanoma) | GI50 (MDA-MB-435) | TGI (MDA-MB-435) | GI50 (SW-620 colon) | TGI (SW-620 colon) | GI50 (HL-60(TB) leukemia) | TGI (HL-60(TB) leukemia) | GI50 (PC-3 prostate) | TGI (PC-3 prostate) | GI50 (HCT-116 colon) | TGI (HCT-116 colon) | GI50 (HT29 colon) | TGI (HT29 colon) | GI50 (CAKI-1 renal) | TGI (CAKI-1 renal) |
| --- | --- | --- | --- | --- | --- | --- | --- | --- | --- | --- | --- | --- | --- | --- | --- | --- | --- | --- | --- | --- |
| COc1cc(O)c(C(=O)/C=C/c2ccc(O)cc2)c(O)c1[C@@H]1C[C@H](CCc2ccc(O)cc2)O[C@H](c2ccc(O)cc2)C1 | 2.82 µM | 7.65 µM | 7.53 µM | 19.9 µM | 5.46 µM | 28.7 µM | 3.89 µM | 14 µM | 2.23 µM | 4.91 µM | 2.02 µM | 3.91 µM | 3.37 µM | 12.5 µM | 3.74 µM | 11.1 µM | 3.66 µM | 11.2 µM | 13.6 µM | 28.9 µM |
| Cc1cc(Cl)ccc1NC(=O)c1cc2ccccc2cc1O | 2.11 µM | > 100 µM | 4.2 µM | > 100 µM | 0.342 µM | > 100 µM | 0.555 µM | > 100 µM | 1.59 µM | > 100 µM | 0.435 µM | 3.47 µM | 0.875 µM | 28.4 µM | 0.405 µM | > 100 µM | 12.3 µM | > 100 µM | 0.381 µM | > 100 µM |
| NC(=O)c1cc(-c2ccc(F)cc2)cc(-c2ccncc2)c1N | > 25 µM | > 25 µM | > 25 µM | > 25 µM | > 25 µM | > 25 µM | > 25 µM | > 25 µM | > 25 µM | > 25 µM | > 25 µM | > 25 µM | > 25 µM | > 25 µM | > 25 µM | > 25 µM | > 25 µM | > 25 µM | 13.7 µM | > 25 µM |
| Cc1occc1C(=S)Nc1ccc(Cl)c(C(=O)OC(C)C2CC2)c1 (stereo not given) | – | 50.5 µM | – | 61.2 µM | – | 36.4 µM | – | 66.2 µM | – | > 100 µM | – | 54.1 µM | – | 41.3 µM | – | > 100 µM | – | 49 µM | – | 48.8 µM |
| C=C1CC/C=C(\C)C(=O)C[C@@H]2[C@@H]1CC2(C)C | – | > 57.5 µM | – | 27.3 µM | – | 10.5 µM | – | 5.18 µM | – | 11.5 µM | – | 0.507 µM | – | 26.1 µM | – | 7.06 µM | – | > 32.7 µM | – | 3.01 µM |
| CC1(C)[C@@H](O[C@@H]2OC[C@@H](O[C@@H]3O[C@H](CO)[C@@H](O)[C@H](O)[C@H]3O[C@@H]3OC[C@@H](O)[C@H](O)[C@H]3O)[C@H](O)[C@H]2O[C@@H]2O[C@H](CO)[C@@H](O)[C@H](O)[C@H]2O)CC[C@]2(C)[C@H]3CC[C@]45OC[C@@]6(CC[C@](C)(C=O)C[C@H]64)[C@H](O)C[C@@]5(C)[C@]3(C)CC[C@@H]12 | 0.922 µM | 1.67 µM | 0.834 µM | 1.66 µM | 0.879 µM | 1.74 µM | 0.851 µM | 1.6 µM | 0.969 µM | 2.04 µM | 1.04 µM | 2.21 µM | 0.884 µM | 1.78 µM | 0.898 µM | 1.91 µM | 1.01 µM | 2.06 µM | 0.763 µM | 1.45 µM |
| O=C(O)c1cccc(N=Nc2c(S(=O)(=O)O)ccc3c2C(=O)c2ccccc2C3=O)c1O | – | > 100 µM | – | > 100 µM | – | > 100 µM | – | > 100 µM | – | > 100 µM | – | > 100 µM | – | > 100 µM | – | > 100 µM | – | > 100 µM | – | > 100 µM |
| CC(=Nc1ccccc1)C1=C(O)C(Cc2ccccc2)NC1=O (stereo not given) | 0.0537 µM | > 61.8 µM | 0.0938 µM | > 100 µM | 0.018 µM | > 100 µM | 0.0196 µM | 0.0528 µM | 0.0328 µM | > 100 µM | 0.0265 µM | 0.0671 µM | 0.036 µM | > 100 µM | 0.0363 µM | 0.51 µM | 0.0331 µM | 0.151 µM | 0.0299 µM | > 76.4 µM |
